According to paper PMC9356039, “Multifunctional synthetic nano-chaperone for peptide folding and intracellular delivery” (Nature Communications, 2022):

Experiment: CD spectroscopy, α-helicity by CONTIN-LL
Assay type: physicochemical
Conditions: for helix1 / helix2 / helix % / strand1 / strand2 / total helix / turns / unordered: CONTINLL from CD spectra
Description: CD spectra were measured using a J-810 spectropolarimeter (JASCO, Japan). Spectra were recorded from 250 nm to 190 nm wavelength using a 1 cm path-length cuvette. Scans were repeated five times and averaged. Molar ellipticity was calculated per amino acid residue. The concentrations of SNCP and p53pep were 0.2 mg/mL and 20 μM, respectively. All sample suspensions were incubated at least for 2 days at room temperature before CD measurement. To perform temperature-dependent CD experiments, the spectra were recorded at 10 °C interval over a temperature range of 25 to 75 °C, with 30 min incubation time to reach equilibrium at each temperature. The α-helicity of peptides was calculated by using the CONTIN-LL algorithms provided from the DICHROWEB server.

With `CC(C)C[C@@H]1NC(=O)[C@H](CC(C)C)NC(=O)[C@H](CCCNC(=N)N)NC(=O)[C@H](Cc2c[nH]c3ccccc23)NC(=O)[C@H](CC(C)C)NC(=O)[C@H](CC(N)=O)NC(=O)[C@H](NC(=O)[C@H](Cc2ccccc2)NC(=O)[C@@H](NC(=O)[C@H](CCC(N)=O)NC(=O)[C@H](CCC(N)=O)NC(=O)[C@H](CO)NC(=O)[C@H](CCC(N)=O)NC(=O)CNC(=O)CNC(=O)c2ccc3c(c2)C(=O)OC32c3ccc(O)cc3Oc3cc(O)ccc32)[C@@H](C)O)CCCCNC(=O)CCc2cn(nn2)CCC[C@@H](C(=O)N[C@@H](CCC(N)=O)C(=O)N[C@@H](CC(N)=O)C(N)=O)NC1=O` [st-p53pep] the helix1 (25 ℃) was 0.186, the helix2 (25 ℃) was 0.16 and the helix % (25 ℃) was 34.6%. It also gave a strand1 (25 ℃) of 0.062, a strand2 (25 ℃) of 0.054 and a total helix (25 ℃) of 0.346. For the same compound, the turns (25 ℃) was 0.123, the unordered (25 ℃) was 0.415 and the helix1 (35 ℃) was 0.176. It also gave a helix2 (35 ℃) of 0.154, a helix % (35 ℃) of 33% and a strand1 (35 ℃) of 0.059. It also gave a strand2 (35 ℃) of 0.054, a total helix (35 ℃) of 0.33 and a turns (35 ℃) of 0.092. For the same compound, the unordered (35 ℃) was 0.464, the helix1 (45 ℃) was 0.187 and the helix2 (45 ℃) was 0.158. The helix % (45 ℃) was 34.5%, the strand1 (45 ℃) was 0.052 and the strand2 (45 ℃) was 0.05. For the same compound, the total helix (45 ℃) was 0.345, the turns (45 ℃) was 0.11 and the unordered (45 ℃) was 0.444. It also gave a helix1 (55 ℃) of 0.186, a helix2 (55 ℃) of 0.147 and a helix % (55 ℃) of 33.3%. It also gave a strand1 (55 ℃) of 0.057, a strand2 (55 ℃) of 0.049 and a total helix (55 ℃) of 0.333. The turns (55 ℃) was 0.117, the unordered (55 ℃) was 0.445 and the helix1 (65 ℃) was 0.088. The helix2 (65 ℃) was 0.108, the helix % (65 ℃) was 19.6% and the strand1 (65 ℃) was 0.14. The strand2 (65 ℃) was 0.096, the total helix (65 ℃) was 0.196 and the turns (65 ℃) was 0.134. For the same compound, the unordered (65 ℃) was 0.433, the helix1 (75 ℃) was 0.041 and the helix2 (75 ℃) was 0.06. For the same compound, the helix % (75 ℃) was 10.1%, the strand1 (75 ℃) was 0.132 and the strand2 (75 ℃) was 0.079. For the same compound, the total helix (75 ℃) was 0.101, the turns (75 ℃) was 0.348 and the unordered (75 ℃) was 0.341. For the same compound, the α-helicity (extracted peptide after re-encapsulation in SNCP8) was 73.4% and the α-helicity (peptide extracted from SNCP8@st-p53pep) was 34.6%.
